Values quoted from earlier work, collected in patent US20200016283A1, “COMBINATION THERAPY COMPRISING A RADIOPHARMACEUTICAL AND A DNA-REPAIR INHIBITOR” (Bayer AS, priority 2017, published 2020).

Conditions: complexed at ambient temperature in aqueous solutions

Cn1ccc(C(=O)NCCN(CCNC(=O)c2ccn(C)c(=O)c2O)CC(Cc2ccc(CC(=O)CCC(=O)O)cc2)CN(CCNC(=O)c2ccn(C)c(=O)c2O)CCNC(=O)c2ccn(C)c(=O)c2O)c(O)c1=O [IV′]
Stability of the Th-227 complex: highly stable
